Assay results as given in patent publication US11512089B2, “Substituted [1,2,4]triazolo[3,4-a]phthalazines as modulators of GABAA receptor activity” (SHANGHAI SIMR BIOTECHNOLOGY CO., LTD, priority 2018, dated 2022).
In brackets after ≈: the same amount, converted by molar mass.

How the values were obtained:
α5-GABAA receptor [1] = target: T1, α5-GABAA receptor (Homo sapiens, UniProt P18507+P31644); assay: Whole cell patch clamp, inverse agonism efficacy on GABA-induced current in HEK-293 cells expressing α5-GABAA receptor; type: cell-based; conditions: HEK293; compound 100 nM, GABA 0.05 μM; ratio to reference compound Example 7 in CN106854207A in the same batch
T1 construct: expressed in transfected cells; host or cells: HEK-293 (monoclonal, stably transfected)
T1 sequence (P28472 26-473 partner, one chain of several): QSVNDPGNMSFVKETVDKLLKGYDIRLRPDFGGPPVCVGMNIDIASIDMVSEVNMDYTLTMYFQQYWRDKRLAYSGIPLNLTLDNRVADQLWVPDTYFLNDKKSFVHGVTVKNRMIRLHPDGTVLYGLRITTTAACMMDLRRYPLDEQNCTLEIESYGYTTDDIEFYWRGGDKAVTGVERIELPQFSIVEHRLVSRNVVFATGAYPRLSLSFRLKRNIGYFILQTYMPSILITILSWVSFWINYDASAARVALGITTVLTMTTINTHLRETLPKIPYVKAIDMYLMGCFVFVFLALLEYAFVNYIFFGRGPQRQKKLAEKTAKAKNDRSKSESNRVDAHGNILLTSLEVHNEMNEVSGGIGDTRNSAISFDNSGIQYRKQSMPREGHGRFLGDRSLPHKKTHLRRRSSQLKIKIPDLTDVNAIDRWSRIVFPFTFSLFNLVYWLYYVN
T1 sequence (P18507 40-467 isoform P18507-1 limits assumed, one chain of several): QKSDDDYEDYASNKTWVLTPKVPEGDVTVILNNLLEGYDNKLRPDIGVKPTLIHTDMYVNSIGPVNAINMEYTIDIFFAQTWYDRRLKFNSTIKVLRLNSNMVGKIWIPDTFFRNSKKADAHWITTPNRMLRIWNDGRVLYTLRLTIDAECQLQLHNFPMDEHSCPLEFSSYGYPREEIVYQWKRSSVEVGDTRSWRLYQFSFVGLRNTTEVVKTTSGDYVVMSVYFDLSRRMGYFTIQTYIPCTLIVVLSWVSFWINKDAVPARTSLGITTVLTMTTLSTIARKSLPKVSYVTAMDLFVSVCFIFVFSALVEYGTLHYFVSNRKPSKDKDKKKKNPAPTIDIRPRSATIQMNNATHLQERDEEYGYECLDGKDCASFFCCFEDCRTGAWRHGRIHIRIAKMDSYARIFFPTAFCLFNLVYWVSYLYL
Description: The inventors used electrophysiological methods to determine the inverse agonist efficacy of the substances to be tested. The detailed procedures are as follows:
(1) Different subunits of GABAA receptors were expressed in human embryonic kidney cells 293 (HEK293). The cells were cultured in a culture medium and used as a cell model for screening potential analgesics. The α, β and γ subunits are necessary to form complete functional GABAA receptors. In this example, the inventors have established the following cell model: (a) α5 subunit (protein sequence is GenBank accession number: NM_000810.3), (33 subunit (protein sequence is GenBank accession number: NM_000814.5) and γ2 subunit (protein sequence is GenBank accession number: NM_000816.3) were expressed in HEK-293 cell line at the same time, followed by screening the monoclonal cell line. This cell line contained α5-GABAA receptor and had complete GABAA receptor function.
(2) The monoclonal stably transfected HEK-293 cells expressing α5-GABAA receptor were cultured in 10 cm culture dishes. The cells were passaged after reaching 80-90% confluence. During passaging, the culture medium was removed and discarded, 3 mL of DPBS (phosphate buffered saline, Gibco™) was added to the dishes, the dishes were shaken slightly, and DPBS was removed and discarded. 1 mL of trypsin (TrypLE Express, Gibco™) was added and the cells were digested at 37° C. for 1-2 minutes. Then 3 mL of complete medium (DMEM+10% FBS (Gibco™)) was added and the cells at the bottom of the culture dishes were dispersed. The cell suspension were transferred to a 15 mL centrifugal tube (Corning™) and then centrifuged at 200 g for 3 minutes. The supernatant was discarded, 4 mL of complete medium was added, and the cells were resuspended by gently blowing. The cell suspension was diluted by 1:5 or 1:10 for subculturing. The cell suspension was diluted by 1:12 for electrophysiology experiment, and added to a 24 well plate (Corning™) with a glass slide pre-treated with poly-D-lysine placed thereon; the experiment was initiated after the cells were adhered to the slide. The cells for electrophysiology experiment were maintained in culture for no more than 48 hours before use.
(3) Compound concentration: for screening, all compounds were diluted to a final concentration of 100 nM and the concentration of GABA was 0.05 μM. The compounds were at the concentration of 0.3 nM, 3 nM, 10 nM, 30 nM, 100 nM and 300 nM in dose-inverse agonism efficacy (%) experiment. The whole cell patch clamp technique was used in electrophysiology experiments, which can refer to the literature (I. Lecker, Y. Yin, D. S. Wang and B. A. Orser, (2013) Potentiation of GABAA receptor activity by volatile anaesthetics is reduced by α5-GABAA receptor-preferring inverse agonists, British Journal of Anaesthesia 110 (S1): i73-i81). The extracellular solution (ECS) contained: 150 mM NaCl, 5 mM KCl, 2.5 mM CaCl2, 1 mM MgCl2, 10 mM HEPES and 10 mM glucose (pH 7.4); Patch electrodes were filled with an intracellular solution containing: 140 mM CsCl, 11 mM EGTA, 10 mM HEPES, 2 mM CaCl2, 1 mM MgCl2, 4 mM MgATP, 2 mM TEA (pH 7.3). The currents were recorded by an EPC-10 amplifier and the PatchMaster software (HEKA). Patch electrodes with a resistance of 4-6 MΩ were pulled from borosilicate glass. The ALA-VC3-8PP™ system was used for extracellular administration. Separate cells that grew independently was selected for recording. During recording, the membrane voltage was clamped at −60 mV. During experiment, the cells were firstly perfused with ECS for 20 seconds. When the baseline reached to a stable state, the cells were then perfused with GABA solution. Then the current induced by GABA could be detected. After about 20 to 40 seconds, the current was stable. ECS was switched to compounds solution and the effects of the compounds were detected. At last, the perfusion solution was switched to ECS. […]

[2] = Kinetic solubility in 50 mM phosphate buffer pH 7.4; type: physicochemical; conditions: aqueous buffer, kinetic from dmso stock, 50 mM phosphate buffer pH 7.4, 2% DMSO, room temperature
Description: (§1) 50 mM phosphate buffer pH=7.4: 0.39 g of NaH2PO4.2H2O, and 1.4025 g of Na2HPO4 were weighted and placed in an erlenmeyer flask, 240 mL of water was added. The solid was dissolved and mixed thoroughly, the pH value was adjusted to 7.4 with 10M NaOH solution, and the resulting solution was transferred to a 250 mL volumetric flask, followed by adding water to the mark.
(§2) Waters e2695 HPLC high performance liquid chromatography, Mettler XSE105 analytical balance.
(§3) Firstly, a 10 mM stock solution with DMSO as the solvent was prepared, and was diluted with a diluent (ACN: PB buffer 50:50) into 1 μM-200 μM as standard solution.
Kinetic solubility. 30 μL of the stock solution was placed in a 2 mL centrifuge tube, 1470 μL of 50 mM phosphate buffer (pH 7.4) (containing DMSO at a final concentration of 2%) was added. The mixture was shaken at room temperature (1000 rpm/min) for 24 hours, and then filtered. The filtrate was tested by high performance liquid chromatography (UV).

[3] = Thermodynamic solubility in 50 mM phosphate buffer pH 7.4; type: physicochemical; conditions: aqueous buffer, thermodynamic from solid, 50 mM phosphate buffer pH 7.4, room temperature
Description: as §1, §2, §3
Thermodynamic solubility. About 1 mg of the sample was weighted, 1.5 mL of 50 mM phosphate buffer (pH 7.4) was added thereto, and the mixture was shaken at room temperature for 24 hours to ensure that the solution reached a state of saturation. The solution was then filtered, and the filtrate was tested with high-performance liquid chromatography (UV).

[4] = Pharmacokinetic experiment on rats, oral; type: in vivo; conditions: rat; male SD rats, po 1 mg/kg, 50% PEG400/50% water, plasma
Description: In the pharmacokinetic experiment on rats, the maximum drug concentration (Cmax) in the blood was determined to evaluate the absorption of the compounds in rats. All rats fasted overnight before administration; the test compounds were dissolved and administered orally (po, intragastric administration) to male SD rats, with 3 rats in each group. After administration of the test compounds, blood was collected by jugular vein puncture at […] with 0.25 mL per sample. The plasma drug concentration was determined by LC-MS/MS method, and the pharmacokinetic parameters were calculated by Phoenix WinNonlin7.0. The dose was 1 mg/kg, and the menstruum was 50% PEG400/50% water.

α5-GABAA receptor [5] = conditions: cited from earlier work
α5-GABAA = target: T2, α5-GABAA (Homo sapiens, UniProt P31644); conditions: cited from earlier work
T2 sequence (P31644 32-462): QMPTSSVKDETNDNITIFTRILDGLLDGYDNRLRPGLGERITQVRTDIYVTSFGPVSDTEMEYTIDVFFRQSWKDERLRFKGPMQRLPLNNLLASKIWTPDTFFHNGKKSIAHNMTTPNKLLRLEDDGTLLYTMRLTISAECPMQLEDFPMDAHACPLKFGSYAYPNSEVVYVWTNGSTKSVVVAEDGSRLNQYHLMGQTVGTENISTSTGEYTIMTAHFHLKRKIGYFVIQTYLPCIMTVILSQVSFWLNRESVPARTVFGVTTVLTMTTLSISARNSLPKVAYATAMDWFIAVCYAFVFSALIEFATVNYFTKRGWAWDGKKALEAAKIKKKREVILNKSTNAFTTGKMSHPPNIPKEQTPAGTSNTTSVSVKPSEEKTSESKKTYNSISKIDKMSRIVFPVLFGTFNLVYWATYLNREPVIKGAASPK

SMILES | Emax at 0.1 µM (α5-GABAA receptor [1]) | solubility kinetic at 24 h [2] | solubility thermodynamic at 24 h [3] | other results
COCc1cc(-c2nnc3c4ccccc4c(OCc4ccc(C(=O)N5CCOCC5)cn4)nn23)no1 [Compound 38, {6-[3-(5-methoxymethyl-isoxazol-3-yl)-[1,2,4]triazolo[3,4-a]phthalazin-6-yloxymethyl]-pyridin-3-yl}-morpholin-4-methanone] | 93.4% | 17.8 µg/mL (≈ 35.4 µM) | 8.7 µg/mL (≈ 17.3 µM) | 
CCNC(=O)c1ccc(COc2nn3c(-c4cc(COC)on4)nnc3c3ccccc23)nc1 [drawing 172] |  |  |  | Cmax [4]: 24.7 ng/mL
Cc1cc(-c2nncc3c(C(C)(C)C)c(OCc4ncnn4C)nn23)no1 [MRK016, 3-tert-butyl-7-(5-methylisoxazol-3-yl)-2-(1-methyl-1H-1,2,4-triazol-5-ylmethoxy)pyrazolo[1,5-d][1,2,4]triazine] |  |  |  | block of the binding of (^3H)R0-15-1788 in brain (α5-GABAA receptor [5]): efficiently block
CCNC(=O)c1ccc(COc2nn3c(-c4cc(C)on4)nnc3c3ccccc23)nc1 [drawing 173, reference compound] |  |  |  | Cmax [4]: 19 ng/mL
CCOC(=O)c1ncn2c1[C@@H]1CCCN1C(=O)c1cc(OC)ccc1-2 [L-655,708] |  |  |  | inhibition efficacy of the highest dose on the current induced by GABA (α5-GABAA; GABA concentration 1 μM): 15%; inhibition on the current induced by GABA (α5-GABAA; GABA concentration higher than 1 μM): no inhibition
Cc1cc(-c2nnc3c4ccccc4c(OCc4ccc(C(=O)N5CCOCC5)cn4)nn23)no1 [drawing 175, reference compound] |  |  |  | Cmax [4]: 22.4 ng/mL
Cc1cc(-c2nnc3c4ccccc4c(OCc4ccc(C(=O)NC(C)C)cn4)nn23)no1 [reference compound] |  | 2.2 µg/mL (≈ 4.96 µM) | 1.8 µg/mL (≈ 4.06 µM) | 
COCc1cc(-c2nnc3c4ccccc4c(OCc4ccc(C(=O)N5CC(OC)C5)cn4)nn23)no1 [Compound 42] | 73.3% | 5.89 µg/mL (≈ 11.7 µM) | 6.02 µg/mL (≈ 12 µM) | 
COCc1cc(-c2nnc3c4ccccc4c(OCc4ccc(C(=O)N(C)C)cn4)nn23)no1 [Compound 37] | 72.1% | 91.9 µg/mL (≈ 200 µM) | 84.7 µg/mL (≈ 184 µM) | 
COCc1cc(-c2nnc3c4ccccc4c(OCc4ccc(C(=O)N5CCOCC5)cn4)nn23)no1 [drawing 174] |  |  |  | Cmax [4]: 48 ng/mL
Cc1cc(-c2nnc3c4ccccc4c(OCc4ccc(C(=O)N5CCOCC5)cn4)nn23)no1 [drawing 171, reference compound] |  | 1.95 µg/mL (≈ 4.14 µM) | 1.7 µg/mL (≈ 3.61 µM) | 
COCc1cc(-c2nnc3c4ccccc4c(OCc4ccc(C(=O)NC5CC5)cn4)nn23)no1 [Compound 12, N-cyclopropyl-6-[3-(5-methoxymethyl-isoxazol-3-yl)-[1,2,4]triazolo[3,4-a]phthalazin-6-yloxymethyl]-nicotinamide] | 94% | 10.9 µg/mL (≈ 23.1 µM) | 9.05 µg/mL (≈ 19.2 µM) | 

Now from value to molecule, other results behind:

Emax at 0.1 µM (α5-GABAA receptor [1]) | solubility kinetic at 24 h [2] | solubility thermodynamic at 24 h [3] | SMILES | other results
78% | 8.02 µg/mL (≈ 17.5 µM) | 3.39 µg/mL (≈ 7.38 µM) | CCNC(=O)c1ccc(COc2nn3c(-c4cc(COC)on4)nnc3c3ccccc23)nc1 [Compound 02, N-ethyl-6-[3-(5-methoxymethyl-isoxazol-3-yl)-[1,2,4]triazolo[3,4-a]phthalazin-6-yloxymethyl]-nicotinamide] | 
106% | 9.23 µg/mL (≈ 19.5 µM) | 4.4 µg/mL (≈ 9.29 µM) | COCc1cc(-c2nnc3c4ccccc4c(OCc4ccc(C(=O)NC(C)C)cn4)nn23)no1 [Compound 11, N-isopropyl-6-[3-(5-methoxymethyl-isoxazol-3-yl)-[1,2,4]triazolo[3,4-a]phthalazin-6-yloxymethyl]-nicotinamide] | 
 | 0.77 µg/mL (≈ 1.5 µM) | 0.84 µg/mL (≈ 1.64 µM) | COCc1cc(-c2nnc3c4ccccc4c(OCc4ccc(C(=O)NCC(F)(F)F)cn4)nn23)no1 [Compound 15, N-(2,2,2-trifluoroethyl)-6-((3-(5-methoxymethylisoxazol-3-yl)-[1,2,4]triazolo[3,4-a]phthalazin-6-oxy)methylene)nicotinamide] | 
